Numbers after ± are expanded uncertainties.
Conditions: 293 K; 101.33 kPa; Crystal; X-ray diffraction

molar volume: 4.271e-05 ± 5.1e-07 m3/mol
SMILES: O=P([O-])([O-])[O-].[Er+3] [erbium phosphate]

From the NIST ThermoML archive (doi:10.1016/j.tca.2012.02.002)
